# Patent US11230525B2, “Organic sulfur compound, method for preparing same, and pharmaceutical composition for preventing or treating cancer or an inflammatory disease, containing same as active ingredient” (SOOKMYUNG WOMENS UNIVERSITY INDUSTRY-ACADEMIC COOPERATION …, priority 2016, dated 2022)
# Experiments:
# [1] = test system: renal cancer cell line (ACHN); experiment: Cancer proliferation inhibitory activity (SRB, GI50), ACHN; format: cell-based; details: Homo sapiens, 48 hours
# Excerpt: (§1) Particularly, the cancer proliferation inhibitory activity of the compounds of comparative examples (Ajoene and the compounds isosteric to Ajoene wherein R1 is allyl or benzyl) and the compounds of examples of the present invention (the compounds not isosteric to Ajoene wherein R^1 is phenyl) was investigated in human cancer cell lines (renal cancer cell line (ACHN), breast cancer cell line (MDA-MB-231), colorectal cancer cell line (HCT-15), prostate cancer cell line (PC-3), gastric cancer cell line (NUGC-3) and lung cancer cell line (NCl-H23)).
# (§2) At this time, the cancer cell lines (renal cancer cell line (ACHN), breast cancer cell line (MDA-MB-231), colorectal cancer cell line (HCT-15), prostate cancer cell line (PC-3), gastric cancer cell line (NUGC-3) and lung cancer cell line (NCl-H23)) above were purchased from American Type Culture Collection (Manassas, Va., USA). Cells were cultured in RPMI 1640 supplemented with 10% fetal bovine serum, which were maintained 37° C. under 5% CO2 wet atmosphere. The cells were distributed in a 96-well plate, which was not treated (treated only with 0.1% DMSO) or treated with the compounds of examples of the present (0.1 μM to 10 μM). 48 hours later, the cells were fixed in 50% trichloroacetic acid, followed by staining with 1% acetic acid containing 0.4% sulphorodamine B dissolved therein. The non-conjugated dye was removed by washing with 1% acetic acid, and the protein conjugated dye was extracted with 10 mM Tris base (pH 10.5). Then, OD540 was measured with VersaMax microplate reader (Molecular devices, Sunnyvale, Calif., USA). GI50 was calculated by using GraphPad Prism software (GraphPad Software, Inc., San Diego, Calif., USA).
# (§3) Based on the results obtained in experimental example 1-1 above, the derivatives wherein R^1 is phenyl were additionally synthesized. The cancer proliferation inhibitory activity of the derivatives was evaluated by the same manner as described in experimental example 1-1.
# [2] = test system: breast cancer cell line (MDA-MB-231); experiment: Cancer proliferation inhibitory activity (SRB, GI50), MDA-MB-231; format: cell-based; details: Homo sapiens, 48 hours
# Excerpt: as §1, §2, §3
# [3] = test system: prostate cancer cell line (PC-3); experiment: Cancer proliferation inhibitory activity (SRB, GI50), PC-3; format: cell-based; details: Homo sapiens, 48 hours
# Excerpt: as §1, §2, §3
# [4] = test system: gastric cancer cell line (NUGC-3); experiment: Cancer proliferation inhibitory activity (SRB, GI50), NUGC-3; format: cell-based; details: Homo sapiens, 48 hours
# Excerpt: as §1, §2, §3
# [5] = test system: colorectal cancer cell line (HCT-15); experiment: Cancer proliferation inhibitory activity (SRB, GI50), HCT-15; format: cell-based; details: Homo sapiens, 48 hours
# Excerpt: as §1, §2, §3
# [6] = test system: lung cancer cell line (NCl-H23); experiment: Cancer proliferation inhibitory activity (SRB, GI50), NCI-H23; format: cell-based; details: Homo sapiens, 48 hours
# Excerpt: as §1, §2, §3
# [7] = target: T1, HDAC 8 (Homo sapiens, UniProt Q9BY41); experiment: HDAC enzyme fluorescence assay, HDAC 8; format: biochemical; parameters: Inhibitory activity (%) HDAC 8: concentration or dose not given beside the values; details: for Inhibitory activity (%) HDAC 8: (HDAC inhibitory activity of example compound/HDAC inhibitory activity of SAHA) × 100
# T1 sequence (Q9BY41 1-377): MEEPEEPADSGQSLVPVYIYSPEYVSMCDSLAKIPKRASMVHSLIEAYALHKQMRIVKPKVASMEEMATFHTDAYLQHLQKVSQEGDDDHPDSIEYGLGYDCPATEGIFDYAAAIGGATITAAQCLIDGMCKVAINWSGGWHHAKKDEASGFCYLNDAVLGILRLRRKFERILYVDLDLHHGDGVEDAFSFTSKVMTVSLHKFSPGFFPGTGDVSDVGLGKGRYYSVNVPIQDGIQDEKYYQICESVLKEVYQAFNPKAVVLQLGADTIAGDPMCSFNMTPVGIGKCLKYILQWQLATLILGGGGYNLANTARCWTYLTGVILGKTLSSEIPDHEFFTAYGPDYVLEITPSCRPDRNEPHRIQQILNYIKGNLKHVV
# Procedure: (§4) Particularly, HDAC enzyme analysis was performed based on a uniform fluorescence emission assay. First, the compounds of examples of the present invention or comparative example 1 were diluted at different concentrations, which were treated to the analysis buffer containing 25 mM HEPES (pH 8.0), 137 mM NaCl, 1 mM MgCl2 and 2.7 mM KCL, followed by culture of the recombinant HDAC enzyme. 10 minutes later, Boc-Lys(acetyl)-AMC, the fluorescence inducing substrate, was added thereto, followed by further culture at 37° C. At this time, the concentration of the fluorescence inducing substrate and the culture time were adjusted according to the isotypes of the HDAC enzyme. The reaction was terminated by treating trypsin at room temperature for 20 minutes. The fluorescence intensity was measured using a fluorescence analyzer at an excitation wavelength of 380 nm and an emission wavelength of 460 nm, respectively. The inhibition rate was calculated from the measured fluorescence intensity of each well with comparing to that of the control well. IC50 of the compound was calculated by analyzing the dose-reaction inhibition curve.
# The HDAC 8 inhibitory activity was presented as percentage of relative activity by the inhibitory activity of SAHA (Vorinostat) used as a reference compound.
# [8] = test system: PC-3 cells, human prostate cancer cells; experiment: Anticancer activity in prostate cancer xenograft model; format: in vivo, mice; details: 50 mg/kg (SAHA 100 mg/kg) once a day for 16 days, compared with the non-treated group
# Procedure: Particularly, 9×10^6 PC-3 cells, human prostate cancer cells, were inoculated subcutaneously to the right side of female BALB/c nu/nu mice at 5 weeks of age (Nara Biotech, Seoul, Republic of Korea).
# (§5) When the tumor size reached 40-60 mm^3, the mice were randomly grouped (4 mice per group), which were the non-treated group (10% dimethylacetamide, 10% tween 80 and 80% distilled water), the groups treated with the compounds of comparative examples 1 and 2 (Ajoene, 50 mg/kg), the groups treated with the compounds of examples 18 and 32 (50 mg/kg), and the group treated with the positive control SAHA (Vorinostat, 100 mg/kg). The treatment was performed once a day for 16 days in total. During the treatment, the tumor size was measured with a vernier caliper, followed by evaluation according to the following formula: length (mm)×width (mm)×height (mm)/2. The weights were measured regularly.
# (§6) Upon completion of the treatment (16 days later), the mice were sacrificed and the tumor weights were measured. All the experiments were performed according to the experiment protocol approved by Institutional Animal care and Use Committee (IACUC), Korea Research Institute of Bioscience and Biotechnology (KRIBB).
# [9] = Body weight of mice in prostate cancer xenograft model; format: in vivo; details: 50 mg/kg (SAHA 100 mg/kg) once a day for 16 days
# Procedure: as §5, §6
# [10] = target: HDAC 1 (Homo sapiens, UniProt Q13547); experiment: HDAC enzyme fluorescence assay, HDAC 1; format: biochemical; details: recombinant HDAC enzyme, Boc-Lys(acetyl)-AMC
# Procedure: as §4
# [11] = target: T2, HDAC 6 (Homo sapiens, UniProt Q9UBN7); experiment: HDAC enzyme fluorescence assay, HDAC 6; format: biochemical; details: recombinant HDAC enzyme, Boc-Lys(acetyl)-AMC
# T2 sequence (Q9UBN7 1-1215): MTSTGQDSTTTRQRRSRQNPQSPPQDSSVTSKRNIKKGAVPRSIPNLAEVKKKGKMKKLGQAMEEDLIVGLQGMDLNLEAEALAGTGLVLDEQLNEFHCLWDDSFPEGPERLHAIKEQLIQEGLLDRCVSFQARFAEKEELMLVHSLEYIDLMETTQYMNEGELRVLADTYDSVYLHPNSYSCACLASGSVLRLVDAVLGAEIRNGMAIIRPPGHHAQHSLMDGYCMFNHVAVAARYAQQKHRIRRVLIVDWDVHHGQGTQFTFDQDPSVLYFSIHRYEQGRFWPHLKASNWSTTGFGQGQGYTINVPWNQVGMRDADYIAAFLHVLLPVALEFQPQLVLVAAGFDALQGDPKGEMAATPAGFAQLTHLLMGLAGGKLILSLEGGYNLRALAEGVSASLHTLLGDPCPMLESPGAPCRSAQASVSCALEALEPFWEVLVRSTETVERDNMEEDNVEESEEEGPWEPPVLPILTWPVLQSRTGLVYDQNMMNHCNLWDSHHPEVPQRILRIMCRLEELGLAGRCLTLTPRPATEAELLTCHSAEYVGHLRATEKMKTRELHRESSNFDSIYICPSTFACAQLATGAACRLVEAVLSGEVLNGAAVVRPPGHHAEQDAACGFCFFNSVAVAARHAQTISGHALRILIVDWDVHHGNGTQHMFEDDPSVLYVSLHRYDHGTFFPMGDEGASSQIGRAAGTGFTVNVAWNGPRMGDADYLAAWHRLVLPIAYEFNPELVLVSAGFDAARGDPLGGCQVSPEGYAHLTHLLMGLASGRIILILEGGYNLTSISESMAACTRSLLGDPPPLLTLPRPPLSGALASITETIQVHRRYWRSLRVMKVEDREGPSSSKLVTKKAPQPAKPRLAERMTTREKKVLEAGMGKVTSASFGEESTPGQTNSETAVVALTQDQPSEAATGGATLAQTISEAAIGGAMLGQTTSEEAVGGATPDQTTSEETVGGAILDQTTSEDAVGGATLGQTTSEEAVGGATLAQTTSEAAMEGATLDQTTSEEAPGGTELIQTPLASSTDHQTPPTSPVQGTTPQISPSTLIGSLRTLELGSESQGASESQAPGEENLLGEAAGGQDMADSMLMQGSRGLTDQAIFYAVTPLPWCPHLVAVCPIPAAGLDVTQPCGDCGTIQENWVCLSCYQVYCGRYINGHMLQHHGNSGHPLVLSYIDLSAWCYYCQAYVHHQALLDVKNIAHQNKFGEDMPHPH
# Procedure: as §4
# Chain of HDAC 1 (Q13547 whole entry, species assumed): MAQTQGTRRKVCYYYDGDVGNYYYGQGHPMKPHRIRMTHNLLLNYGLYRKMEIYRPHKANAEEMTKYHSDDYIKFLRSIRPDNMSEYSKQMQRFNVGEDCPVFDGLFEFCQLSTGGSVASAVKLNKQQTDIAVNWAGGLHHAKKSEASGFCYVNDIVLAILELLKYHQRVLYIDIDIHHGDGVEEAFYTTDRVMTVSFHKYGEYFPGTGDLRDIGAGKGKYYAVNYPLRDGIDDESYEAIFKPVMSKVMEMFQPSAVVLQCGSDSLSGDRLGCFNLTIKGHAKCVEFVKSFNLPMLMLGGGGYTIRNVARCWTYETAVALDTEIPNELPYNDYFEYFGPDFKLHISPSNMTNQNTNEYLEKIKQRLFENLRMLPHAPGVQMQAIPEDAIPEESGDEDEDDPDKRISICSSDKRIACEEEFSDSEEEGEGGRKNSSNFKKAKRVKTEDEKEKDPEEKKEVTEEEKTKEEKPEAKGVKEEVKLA
Structure (SMILES),GI50 [1] [µM],GI50 [2] [µM],GI50 [3] [µM],GI50 [4] [µM],GI50 [5] [µM],GI50 [6] [µM],Inhibitory activity (%) HDAC 8 [7] [%],"tumor size / cancer proliferation (FIGS. 2, 3) [8]",changes in weight of mice / visible toxicity (FIG. 1) [9],IC50 [10] [µM],IC50 [11] [µM],"IC50 ([7]; recombinant HDAC enzyme, Boc-Lys(acetyl)-AMC, read-out: IC50 HDAC 8) [µM]"
"C=CCSS/C=C\C[S+]([O-])CC=C (stereo not shown) [Comparative Example 2, Z-Ajoene, reference compound]",> 10,> 10,> 10,> 10,> 10,> 10,52.5,cancer proliferation was inhibited,only normal weight increases were observed,,,
"[O-][S+](C/C=C\SSCc1ccccc1)c1ccccc1 (stereo not shown) [Example 6, (Z)-1-benzyl-2-(3-(phenylsulfinyl)prop-1-enyl)disulfane]",5.42,3.96,5.35,3.25,6.48,4.91,129.1,,,3.89,49.1,0.043
"O=C(CCCCCCC(=O)Nc1ccccc1)NO [SAHA, reference compound]",,,,,,,,cancer proliferation was inhibited,,,,
"COc1cccc([S+]([O-])C/C=C\SSCc2ccc(Cl)cc2)c1 (stereo not shown) [Example 24, (Z)-1-(4-chlorobenzyl)-2-(3-(3-methoxyphenylsulfinyl)prop-1-enyl)disulfane]",5.82,3.57,5.97,5.8,3.65,5.27,140.4,,,1.27,,
"C=CCSS/C=C/C[S+]([O-])CC=C (stereo not shown) [Comparative Example 1, E-Ajoene, reference compound]",,,,,,,73.4,cancer proliferation was inhibited,only normal weight increases were observed,,,
